Test results as given in ChEMBL document CHEMBL5244209, “Antiplasmodial and antimalarial activities of quinolone derivatives: An overview” (Eur J Med Chem, 2018).
≈ marks a conversion by molar mass, not a printed value.

How the values were obtained:
[1] = test system: Plasmodium falciparum; assay: Antiplasmodial activity against chloroquine-sensitive Plasmodium falciparum 3D7 infected in human erythrocyte incubated for 72 hrs by SYBR green I staining based fluorescence assay; assay type: functional, organism-based; conditions: 3D7, Erythrocyte
[2] = test system: Plasmodium falciparum; assay: Antiplasmodial activity against Plasmodium falciparum D6 infected in human Erythrocyte measured after 72 hrs by SYBR green fluorescence dye based microplate reader analysis; assay type: functional, organism-based
[3] = test system: Plasmodium falciparum; assay: Antiplasmodial activity against Plasmodium falciparum Dd2 infected in human Erythrocyte measured after 72 hrs by SYBR green fluorescence dye based microplate reader analysis; assay type: functional, organism-based
[4] = test system: Plasmodium falciparum; assay: Antiplasmodial activity against Plasmodium falciparum Tm90-C2B infected in human Erythrocyte measured after 72 hrs by SYBR green fluorescence dye based microplate reader analysis; assay type: functional, organism-based
[5] = test system: Plasmodium berghei; assay: Antiplasmodial activity against liver stage Plasmodium berghei ANKA infected in human HepG2 cells measured after 44 hrs; assay type: functional, organism-based; conditions: HepG2, 44 h
[6] = test system: Plasmodium falciparum; assay: Antimalarial activity against Antimalarial activity against chloroquine-sensitive Plasmodium falciparum FCR-3; assay type: functional, organism-based
[7] = test system: Plasmodium falciparum; assay: Antimalarial activity against blood stage chloroquine-sensitive Plasmodium falciparum 3D7 infected in erythrocytes assessed as reduction in parasite growth preincubated for 72 hrs followed by addition of [3H]Hypoxanthine and measured after 24 hrs by liquid scintillation counting method; assay type: functional, organism-based; conditions: 3D7, Erythrocyte
[8] = test system: Plasmodium yoelii yoelii; assay: Antimalarial activity against hepatic stage Plasmodium yoelii yoelii 265 BY for 48 hrs with media renew every 24 hrs; assay type: functional, organism-based
[9] = test system: Plasmodium falciparum; assay: Antimalarial activity against blood stage chloroquine-sensitive Plasmodium falciparum NF54-R infected in erythrocytes assessed as reduction in parasite growth preincubated for 72 hrs followed by addition of [3H]Hypoxanthine and measured after 24 hrs by liquid scintillation counting method; assay type: functional, organism-based; conditions: Erythrocyte
[10] = test system: Plasmodium falciparum; assay: Antimalarial activity against chloroquine-sensitive Plasmodium falciparum 3D7; assay type: functional, organism-based
[11] = test system: FM3A; assay: Cytotoxicity against mouse FM3A cells; assay type: functional, cell-based
[12] = test system: Plasmodium falciparum; assay: Antimalarial activity against chloroquine-sensitive Plasmodium falciparum FCC1 measured after 48 hrs; assay type: functional, organism-based; conditions: FCC1, 48 h
[13] = test system: Plasmodium falciparum; assay: Antimalarial activity against chloroquine-resistant Plasmodium falciparum VNS measured after 48 hrs; assay type: functional, organism-based

Structure (SMILES): C=CC1CC2CCC1CC2[C@H](OC(=O)[C@@H](NC(=O)C1=CN(CC)C2C=C3OCOC3=CC2C1=O)C(C)C)c1cccc2ccc(OC)cc12 (some centres undefined)
- IC50 [1]: 0.183 µM

Structure (SMILES): C[C@@H]1CC[C@H]2[C@@H](C)C(=O)O[C@@H]3O[C@@]4(C)CC[C@@H]1[C@]32OO4 [ARTEMISININ]
- IC50 [2]: 0.81 nM
- IC50 [3]: 0.6 nM
- IC50 [4]: 0.0021 µM

Structure (SMILES): COc1cc2[nH]c(C)c(-c3ccccc3C)c(=O)c2cc1Cl
- IC50 [5]: 0.00282 µM

Structure (SMILES): CCCCCc1c(C)[nH]c2cc(OC)ccc2c1=O
- IC50 [2]: 8 nM
- IC50 [3]: 12 nM
- IC50 [4]: 0.052 µM

Structure (SMILES): Cn1cc(C(=O)N/N=C/c2cccnc2)c(=O)c2cc(C(F)(F)F)ccc21
- IC50 [6]: > 100 µM

Structure (SMILES): CCCCCCCc1c(C)[nH]c2cc(C#N)ccc2c1=O
- IC50 [2]: 18 nM
- IC50 [3]: 45 nM

Structure (SMILES): Cc1c(F)c(N2CCNC(C)C2)cc2c1c(=O)c(C(=O)O)cn2C1CC1 (centres undefined) [GREPAFLOXACIN]
- IC50 [7]: 4.5 µg/mL (≈ 12.5 µM)
- IC50 [8]: 4.4 µg/mL (≈ 12.2 µM)
- IC50 [9]: 3.1 µg/mL (≈ 8.63 µM)

Structure (SMILES): CCCCCCCc1c(C)nc2cc(OC)ccc2c1O
- IC50 [2]: 4 nM
- IC50 [3]: 3 nM
- IC50 [4]: 0.011 µM

Structure (SMILES): C=CC1CC2CCC1CC2[C@H](OC(=O)CNC(=O)C1=CN(C2CC2)C2C=C(N3CCN(CC)CC3)C(F)=CC2C1=O)c1cccc2ccc(OC)cc12 (some centres undefined)
- IC50 [1]: 0.028 µM

Structure (SMILES): CCOC(=O)/C(=C\n1cc(C(=O)OCC)c(=O)c2cc(F)ccc21)c1ccncc1
- IC50 [10]: 8.2 µM
- IC50 [11]: > 24 µM

Structure (SMILES): CN1CCN(c2c(F)cc3c(=O)c(C(=O)O)cn4c3c2OCN4C)CC1 [MARBOFLOXACIN]
- IC50 [7]: 30.8 µg/mL (≈ 85 µM)
- IC50 [8]: > 100 µg/mL
- IC50 [9]: 21.6 µg/mL (≈ 59.6 µM)

Structure (SMILES): CC1CCc2cc(F)cc3c(=O)c(C(=O)O)cn1c23 (centres undefined) [FLUMEQUINE]
- IC50 [7]: 38.3 µg/mL (≈ 147 µM)
- IC50 [8]: > 100 µg/mL
- IC50 [9]: 14.1 µg/mL (≈ 54 µM)

Structure (SMILES): C=C[C@H]1CN2CC[C@H]1C[C@H]2[C@H](O)c1ccnc2ccc(OC)cc12 [QUININE]
- IC50 [1]: 0.018 µM
- IC50 [6]: 0.11 µM

Structure (SMILES): CCn1cc(C(=O)O)c(=O)c2cc(F)c(N3CCN(C)CC3)cc21 [PEFLOXACIN]
- IC50 [12]: 1300 µM
- IC50 [7]: 83.7 µg/mL (≈ 251 µM)
- IC50 [13]: 850 µM
- IC50 [8]: 86.3 µg/mL (≈ 259 µM)
- IC50 [9]: 6.5 µg/mL (≈ 19.5 µM)

Structure (SMILES): C=CC1CC2CCC1CC2[C@H](OC(=O)[C@@H](NC(=O)C1=CN(CC)C2C=C(C)C=CC2C1=O)C(C)C)c1cccc2ccc(OC)cc12 (some centres undefined)
- IC50 [1]: 0.016 µM

Structure (SMILES): CCn1cc(C(=O)O)c(=O)c2cc3c(cc21)OCO3 [OXOLINIC ACID]
- IC50 [7]: 130 µg/mL (≈ 496 µM)
- IC50 [8]: > 100 µg/mL
- IC50 [1]: > 10 µM
- IC50 [9]: 42.2 µg/mL (≈ 162 µM)

Structure (SMILES): C=CC1CC2CCC1CC2[C@H](OC(=O)[C@H](Cc1ccccc1)NC(=O)C1=CN(CC)C2C=C3OCOC3=CC2C1=O)c1cccc2ccc(OC)cc12 (some centres undefined)
- IC50 [1]: 0.115 µM

Structure (SMILES): CCn1cc(C(=O)O)c(=O)c2cc(F)c(-n3cccc3)cc21 [IRLOXACIN]
- IC50 [7]: 49.4 µg/mL (≈ 165 µM)
- IC50 [8]: > 100 µg/mL
- IC50 [9]: 10.5 µg/mL (≈ 35 µM)

Structure (SMILES): CCOC(=O)/C(=C\n1cc(C(=O)OCC)c(=O)c2cc(F)ccc21)c1cccnc1
- IC50 [10]: 26 µM
- IC50 [11]: 100 µM

Structure (SMILES): C[C@@H]1CN(c2c(F)c(N)c3c(=O)c(C(=O)O)cn(C4CC4)c3c2F)C[C@H](C)N1 [SPARFLOXACIN]
- IC50 [7]: 143 µg/mL (≈ 364 µM)
- IC50 [8]: 53 µg/mL (≈ 135 µM)
- IC50 [9]: 73.9 µg/mL (≈ 188 µM)

Structure (SMILES): CCn1cc(C(=O)O)c(=O)c2cnc(N3CCNCC3)nc21 [PIPEMIDIC ACID]
- IC50 [7]: 40.9 µg/mL (≈ 135 µM)
- IC50 [8]: > 100 µg/mL
- IC50 [9]: 10.5 µg/mL (≈ 34.6 µM)

Structure (SMILES): Nc1ccc2c(=O)c3ccc(OCCCCCC(F)(F)F)cc3[nH]c2c1
- IC50 [2]: 0.02 nM
- IC50 [3]: 0.02 nM
- IC50 [4]: 0.078 µM

Structure (SMILES): COc1c(N2CCNC(C)C2)c(F)cc2c(=O)c(C(=O)O)cn(C3CC3)c12 (centres undefined) [GATIFLOXACIN]
- IC50 [7]: 34.8 µg/mL (≈ 92.7 µM)
- IC50 [8]: > 100 µg/mL
- IC50 [9]: 10.9 µg/mL (≈ 29 µM)

Structure (SMILES): C=CC1CC2CCC1CC2[C@H](OC(=O)[C@H](C)NC(=O)C1=CN2C3C(=C(N4CCN(C)CC4)C(F)=CC3C1=O)OC[C@@H]2C)c1cccc2ccc(OC)cc12 (some centres undefined)
- IC50 [1]: 0.033 µM

Structure (SMILES): CN1CCN(c2c(F)cc3c(=O)c(C(=O)O)cn4c3c2SCC4)CC1 [RUFLOXACIN]
- IC50 [7]: 81.9 µg/mL (≈ 225 µM)
- IC50 [8]: 47.8 µg/mL (≈ 132 µM)
- IC50 [9]: 30.1 µg/mL (≈ 82.8 µM)

Structure (SMILES): CCCCCCCc1c(C)[nH]c2cc(O)ccc2c1=O
- IC50 [2]: 759 nM
- IC50 [3]: 805 nM
- IC50 [4]: 0.824 µM

Structure (SMILES): NC1CCN(c2c(F)cc3c(=O)c(C(=O)O)cn(C4CC4)c3c2Cl)C1 (centres undefined) [CLINAFLOXACIN]
- IC50 [7]: 13.7 µg/mL (≈ 37.5 µM)
- IC50 [8]: 90.2 µg/mL (≈ 247 µM)
- IC50 [9]: 3.3 µg/mL (≈ 9.02 µM)

Structure (SMILES): O=C(O)/C(=C\n1cc(C(=O)O)c(=O)c2cc(F)ccc21)c1cccnc1
- IC50 [10]: 24 µM
- IC50 [11]: > 100 µM

Structure (SMILES): CC1CN(c2cc3c(cc2F)c(=O)c(C(=O)O)cn3-c2ccc(F)cc2F)CCN1 (centres undefined) [TEMAFLOXACIN]
- IC50 [7]: 34.9 µg/mL (≈ 83.6 µM)
- IC50 [8]: 72.2 µg/mL (≈ 173 µM)
- IC50 [9]: 14.1 µg/mL (≈ 33.8 µM)

Structure (SMILES): CCCCCCCc1c(C)[nH]c2cc(OC(F)(F)F)ccc2c1=O
- IC50 [2]: 86 nM
- IC50 [3]: 86 nM
- IC50 [4]: 0.102 µM
